The subject of one series is T98G cells. The experiment in a line: T98G cell transfection efficiency by flow cytofluorometry. It counts as cell-based, human. The conditions noted are these: 4 hours. The method, then:
(§1) To study cell penetration efficiency, oligonucleotide 5′-[FAM]-CTGACTATGAAGTAT*T-3′ (OSN4F) was used, wherein * is a position of thiazinylamidophosphate unit carrying two dodecyl moieties, and control unmodified oligonucleotide 5′-[FAM]-CTGACTATGAAGTATT-3′ (OSNF).
(§2) Cultured HEK293T and T98G human cells were plated onto the wells of a 24-well microplate in a concentration 20×10^4 cells/well (HEK293T) or 12×10^4 cells/well (T98G) in 500 μl/well IMDM media comprising 10% FBS and 1% solution of antibiotic and antimycotic agents (10 mg/ml streptomycin, 10,000 U/ml penicillin, and 25 mg/ml amphotericin (IMP Biomedicals, Germany) (hereinafter, the complete medium), and incubated for 18 hrs to provide cell attachment. Furthermore, cell medium was replaced with 200 μl/well IMDM medium in the absence of serum and antibiotic agents. Oligonucleotides (OSNF, OSN4F) were dissolved in Opti-MEM and added to the cells until the final concentration of 1 or 5 μM (50 μl/well) was achieved. […] The cells were analyzed on a flow cytometer NovoCyte 3000 (ACEA Biosciences, USA). […] Oligonucleotide penetration efficiency was characterized by two indicators: % of fluorescent cells in a population and average intensity of cell fluorescence in a sample, which were measured using flow cytometry in 4 hours after transfection. […] RFU means relative fluorescence units, LF means Lipofectamine 2000. […]

In series [1] the test system is HEK293T cells. The experiment in a line: Comparison of cell penetration efficiency of oligonucleotides with lipophilic moieties in various modification backbones. The format is cell-based, human. The conditions noted are these: 4 hours after transfection. The method, then: Cultured HEK293T and T98G human cells were plated onto the wells of a 24-well microplate in a concentration 20×10^4 cells/well (HEK293T) or 12×10^4 cells/well (T98G) in 500 μl/well IMDM media comprising 10% FBS and 1% solution of antibiotic and antimycotic agents (10 mg/ml streptomycin, 10,000 U/ml penicillin, and 25 mg/ml amphotericin (IMP Biomedicals, Germany) (hereinafter, the complete medium), and incubated for 18 hrs to provide cell attachment. Furthermore, cell medium was replaced with 200 μl/well IMDM medium in the absence of serum and antibiotic agents. Oligonucleotides (OSNF, OSN4F) were dissolved in Opti-MEM and added to the cells until the final concentration of 1 or 5 μM (50 μl/well) was achieved. […] The cells were analyzed on a flow cytometer NovoCyte 3000 (ACEA Biosciences, USA). […] Oligonucleotide penetration efficiency was characterized by two indicators: % of fluorescent cells in a population and average intensity of cell fluorescence in a sample, which were measured using flow cytometry in 4 hours after transfection. Histograms A and C show % of fluorescent cells, histograms B and D show average fluorescence intensity. RFU means relative fluorescence units, LF means Lipofectamine 2000. […]
Cell fluorescence percent (left) and average fluorescence intensity (right) were measured using flow cytometry in 4 hours after transfection. […]

Series [2] relates to HEK293T cells. The experiment in a line: Confocal microscopy of penetration into human cells. It counts as cell-based. The conditions noted are these: 1 μM, 4 hours, no serum. As for the experimental part:
In this study, oligonucleotide 5′-[FAM]-CTGACTATGAAGTAT*T-3′ (OSN4F) was used, wherein * is a position of triazinylamidophosphate unit having two dodecyl moieties.
Cultured human cells HEK293T were plated on slides placed to the wells of the 24-well microplate, in a concentration of 6×10^4 cells/well in a complete IMDM medium and incubated at 37° C. in 5% CO2 for 12 to 18 hours to provide cell attachment. Then, the medium was replaced to IMDM, in the absence of serum and antibiotic agent, which comprises OSN4F at a concentration of 1 μM. The cells were incubated in the presence of oligonucleotide at 37° C. in 5% CO2 for 4 hours. […]
Intracellular location of oligonucleotide OSN4F was studied using confocal microscope LSM710 (Zeiss, Germany) with the plan-apochromat 63×/1.40 Oil DIC M27 (Zeiss, Germany) lens and two channels, blue and green. Fluorescence in a blue channel at exciting laser wavelength of 405 nm corresponded to NucBlue (cell nuclei staining); green channel at exciting laser wavelength of 488 nm corresponded to fluorescence of oligonucleotide OSN4F labelled with a 6-carboxyfluorescein moiety.

For series [3], the system named is HEK293T cells. The experiment in a line: HEK293T cell transfection efficiency by flow cytofluorometry. The format is cell-based, human. The conditions noted are these: 4 hours. As for the experimental part:
as §1, §2

[TzD] = triazinylamidophosphate internucleotide linkage carrying two dodecyl amine moieties; {FAM} = fluorescein (FAM) label

In the case of “5′-[FAM]-CTGACTATGAAGTAT*T-3′ (CTGACTATGAAGTATT; DNA, linkages o14 [TzD]1 (s phosphorothioate, o phosphodiester), 5' {FAM}, methylation of C not given here) [OSN4F, * is a triazinylamidophosphate unit carrying two dodecyl moieties]”, the “penetration efficiency relative to control oligonucleotide” value with T98G cells (1 or 5 μM, no additional transfectants) is “penetrates the T98G cells more efficiently than the control oligonucleotide”. The “penetration efficiency in T98G relative to HEK293T cells” value in the series with T98G cells was “reduced relative to the HEK293K kidney cells”. Also, in the series with HEK293T cells [1] (1 μM), the “penetration rate (cell fluorescence percent) relative to PGO, PN, ODF” value was “significantly higher than in other oligonucleotides used”. The “average fluorescence intensity relative to other oligonucleotides” value with HEK293T cells [1] was “penetrates cells in larger amounts than other oligonucleotides”. The intracellular location result in the series with HEK293T cells [2] is “positioning in the cytoplasm and various cell compartments”. Besides, the “penetration efficiency (number of transfected cells and fluorescence intensity)” value in the series on HEK293T cells [3] (1 or 5 μM, no additional transfection agent) is on record as “efficiently penetrates the HEK293T cells”. For the same substance, the “penetration efficiency relative to control OSNF with Lipofectamine 2000” value with HEK293T cells [3] (OSN4F without transfection agent) was “comparable”.

(Values after US20260085087A1, “CHEMICAL COMPOUND COMPRISING A TRIAZINE GROUP AND METHOD FOR PRODUCING SAME” (priority 2020, published 2026).)
